In the NIST ThermoML archive (doi:10.1021/je300873x):
Numbers after ± are expanded uncertainties.

Assay: mn = molality of the nth substance listed, in mol/kg
Details: for surface tension liquid-gas: Pendant drop shape; for electrical conductivity: Liquid, Digital conductivity meter

In the case of `O` [water] + CCCCCCCCCCCCCCCC[N+](C)(C)CCO.[Br-], the surface tension liquid-gas (298.15 K, m2 = 0) is reported as 72.17 ± 0.64 mN/m.
Molecule `CCCCCCCCCCCC[N+](C)(CCO)CCO.[Br-]` [N,N-bis(2-hydroxyethyl)-N-methyldodecan-1-aminium bromide] + O has a surface tension liquid-gas (298.15 K, m1 = 0.00097) of 68.8 ± 0.01 mN/m, a surface tension liquid-gas (298.15 K, m1 = 0.00193) of 62.75 ± 0.01 mN/m and a surface tension liquid-gas (298.15 K, m1 = 0.00387) of 54.86 ± 0.01 mN/m. It also gave a surface tension liquid-gas (298.15 K, m1 = 0.0058) of 48.7 ± 0.01 mN/m, a surface tension liquid-gas (298.15 K, m1 = 0.00773) of 45.46 ± 0.01 mN/m and a surface tension liquid-gas (298.15 K, m1 = 0.00967) of 41.58 ± 0.01 mN/m. It also gave a surface tension liquid-gas (298.15 K, m1 = 0.0116) of 39.54 ± 0.01 mN/m, a surface tension liquid-gas (298.15 K, m1 = 0.01257) of 38.9 ± 0.01 mN/m and a surface tension liquid-gas (298.15 K, m1 = 0.0145) of 38.74 ± 0.01 mN/m. For the same molecule, the surface tension liquid-gas (298.15 K, m1 = 0.01644) was 38.53 ± 0.01 mN/m, the surface tension liquid-gas (298.15 K, m1 = 0.01956) was 38.53 ± 0.01 mN/m and the surface tension liquid-gas (298.15 K, m1 = 0.0291) was 38.45 ± 0.01 mN/m. For the same molecule, the surface tension liquid-gas (298.15 K, m1 = 0.04849) was 38.36 ± 0.01 mN/m, the electrical conductivity (298.15 K, m1 = 0.0095) was 0.0822 ± 0.0001 S/m and the electrical conductivity (298.15 K, m1 = 0.00997) was 0.0859 ± 0.0001 S/m. For the same molecule, the electrical conductivity (298.15 K, m1 = 0.0105) was 0.0903 ± 0.0001 S/m, the electrical conductivity (298.15 K, m1 = 0.01108) was 0.0948 ± 0.0001 S/m and the electrical conductivity (298.15 K, m1 = 0.01174) was 0.0998 ± 0.0001 S/m. The electrical conductivity (298.15 K, m1 = 0.01247) was 0.1051 ± 0.0001 S/m, the electrical conductivity (298.15 K, m1 = 0.01287) was 0.1075 ± 0.0001 S/m and the electrical conductivity (298.15 K, m1 = 0.0133) was 0.1097 ± 0.0001 S/m. For the same molecule, the electrical conductivity (298.15 K, m1 = 0.01376) was 0.1114 ± 0.0001 S/m, the electrical conductivity (298.15 K, m1 = 0.01425) was 0.1126 ± 0.0001 S/m and the electrical conductivity (298.15 K, m1 = 0.01478) was 0.1144 ± 0.0001 S/m. The electrical conductivity (298.15 K, m1 = 0.01535) was 0.1155 ± 0.0001 S/m, the electrical conductivity (298.15 K, m1 = 0.01596) was 0.1171 ± 0.0001 S/m and the electrical conductivity (298.15 K, m1 = 0.01663) was 0.119 ± 0.0001 S/m. It also gave an electrical conductivity (298.15 K, m1 = 0.01735) of 0.1209 ± 0.0001 S/m, an electrical conductivity (298.15 K, m1 = 0.01814) of 0.1227 ± 0.0001 S/m and an electrical conductivity (298.15 K, m1 = 0.01901) of 0.1245 ± 0.0001 S/m. It also gave an electrical conductivity (298.15 K, m1 = 0.01996) of 0.1268 ± 0.0001 S/m, an electrical conductivity (303.15 K, m1 = 0.00949) of 0.091 ± 0.0001 S/m and an electrical conductivity (303.15 K, m1 = 0.00996) of 0.0952 ± 0.0001 S/m. The electrical conductivity (303.15 K, m1 = 0.01049) was 0.0996 ± 0.0001 S/m, the electrical conductivity (303.15 K, m1 = 0.01107) was 0.1049 ± 0.0001 S/m and the electrical conductivity (303.15 K, m1 = 0.01172) was 0.1117 ± 0.0001 S/m. The electrical conductivity (303.15 K, m1 = 0.01245) was 0.1161 ± 0.0001 S/m, the electrical conductivity (303.15 K, m1 = 0.01285) was 0.1192 ± 0.0001 S/m and the electrical conductivity (303.15 K, m1 = 0.01328) was 0.1216 ± 0.0001 S/m. The electrical conductivity (303.15 K, m1 = 0.01374) was 0.1236 ± 0.0001 S/m, the electrical conductivity (303.15 K, m1 = 0.01423) was 0.1258 ± 0.0001 S/m and the electrical conductivity (303.15 K, m1 = 0.01476) was 0.127 ± 0.0001 S/m. It also gave an electrical conductivity (303.15 K, m1 = 0.01533) of 0.1296 ± 0.0001 S/m, an electrical conductivity (303.15 K, m1 = 0.01594) of 0.1313 ± 0.0001 S/m and an electrical conductivity (303.15 K, m1 = 0.01661) of 0.1328 ± 0.0001 S/m. It also gave an electrical conductivity (303.15 K, m1 = 0.01733) of 0.1347 ± 0.0001 S/m, an electrical conductivity (303.15 K, m1 = 0.01812) of 0.1365 ± 0.0001 S/m and an electrical conductivity (303.15 K, m1 = 0.01898) of 0.1386 ± 0.0001 S/m. The electrical conductivity (303.15 K, m1 = 0.01993) was 0.141 ± 0.0001 S/m, the electrical conductivity (308.15 K, m1 = 0.00994) was 0.1048 ± 0.0001 S/m and the electrical conductivity (308.15 K, m1 = 0.01047) was 0.1099 ± 0.0001 S/m. The electrical conductivity (308.15 K, m1 = 0.01105) was 0.1157 ± 0.0001 S/m, the electrical conductivity (308.15 K, m1 = 0.0117) was 0.1216 ± 0.0001 S/m and the electrical conductivity (308.15 K, m1 = 0.01243) was 0.1282 ± 0.0001 S/m. It also gave an electrical conductivity (308.15 K, m1 = 0.01283) of 0.1315 ± 0.0001 S/m, an electrical conductivity (308.15 K, m1 = 0.01326) of 0.1349 ± 0.0001 S/m and an electrical conductivity (308.15 K, m1 = 0.01372) of 0.1375 ± 0.0001 S/m. For the same molecule, the electrical conductivity (308.15 K, m1 = 0.01421) was 0.1402 ± 0.0001 S/m, the electrical conductivity (308.15 K, m1 = 0.01473) was 0.1421 ± 0.0001 S/m and the electrical conductivity (308.15 K, m1 = 0.0153) was 0.1447 ± 0.0001 S/m. The electrical conductivity (308.15 K, m1 = 0.01591) was 0.1463 ± 0.0001 S/m, the electrical conductivity (308.15 K, m1 = 0.01658) was 0.1485 ± 0.0001 S/m and the electrical conductivity (308.15 K, m1 = 0.0173) was 0.151 ± 0.0001 S/m. The electrical conductivity (308.15 K, m1 = 0.01809) was 0.153 ± 0.0001 S/m, the electrical conductivity (308.15 K, m1 = 0.01895) was 0.1563 ± 0.0001 S/m and the electrical conductivity (308.15 K, m1 = 0.0199) was 0.1591 ± 0.0001 S/m. The electrical conductivity (313.15 K, m1 = 0.01045) was 0.1198 ± 0.0001 S/m, the electrical conductivity (313.15 K, m1 = 0.01103) was 0.1258 ± 0.0001 S/m and the electrical conductivity (313.15 K, m1 = 0.01168) was 0.1323 ± 0.0001 S/m. The electrical conductivity (313.15 K, m1 = 0.01241) was 0.14 ± 0.0001 S/m, the electrical conductivity (313.15 K, m1 = 0.01281) was 0.1439 ± 0.0001 S/m and the electrical conductivity (313.15 K, m1 = 0.01324) was 0.1478 ± 0.0001 S/m. For the same molecule, the electrical conductivity (313.15 K, m1 = 0.01369) was 0.1515 ± 0.0001 S/m, the electrical conductivity (313.15 K, m1 = 0.01418) was 0.155 ± 0.0001 S/m and the electrical conductivity (313.15 K, m1 = 0.01471) was 0.1577 ± 0.0001 S/m. The electrical conductivity (313.15 K, m1 = 0.01527) was 0.1602 ± 0.0001 S/m, the electrical conductivity (313.15 K, m1 = 0.01589) was 0.1631 ± 0.0001 S/m and the electrical conductivity (313.15 K, m1 = 0.01655) was 0.1654 ± 0.0001 S/m. It also gave an electrical conductivity (313.15 K, m1 = 0.01727) of 0.168 ± 0.0001 S/m, an electrical conductivity (313.15 K, m1 = 0.01805) of 0.1707 ± 0.0001 S/m and an electrical conductivity (313.15 K, m1 = 0.01891) of 0.1726 ± 0.0001 S/m. It also gave an electrical conductivity (318.15 K, m1 = 0.01043) of 0.1298 ± 0.0001 S/m, an electrical conductivity (318.15 K, m1 = 0.01101) of 0.1366 ± 0.0001 S/m and an electrical conductivity (318.15 K, m1 = 0.01165) of 0.1438 ± 0.0001 S/m. It also gave an electrical conductivity (318.15 K, m1 = 0.01238) of 0.1522 ± 0.0001 S/m, an electrical conductivity (318.15 K, m1 = 0.01278) of 0.1567 ± 0.0001 S/m and an electrical conductivity (318.15 K, m1 = 0.01321) of 0.1612 ± 0.0001 S/m. For the same molecule, the electrical conductivity (318.15 K, m1 = 0.01367) was 0.166 ± 0.0001 S/m, the electrical conductivity (318.15 K, m1 = 0.01415) was 0.1704 ± 0.0001 S/m and the electrical conductivity (318.15 K, m1 = 0.01468) was 0.1739 ± 0.0001 S/m. The electrical conductivity (318.15 K, m1 = 0.01524) was 0.177 ± 0.0001 S/m, the electrical conductivity (318.15 K, m1 = 0.01585) was 0.1806 ± 0.0001 S/m and the electrical conductivity (318.15 K, m1 = 0.01651) was 0.1838 ± 0.0001 S/m. For the same molecule, the electrical conductivity (318.15 K, m1 = 0.01723) was 0.1864 ± 0.0001 S/m, the electrical conductivity (318.15 K, m1 = 0.01802) was 0.1895 ± 0.0001 S/m and the electrical conductivity (318.15 K, m1 = 0.01887) was 0.1932 ± 0.0001 S/m. The electrical conductivity (318.15 K, m1 = 0.01983) was 0.1976 ± 0.0001 S/m, the electrical conductivity (323.15 K, m1 = 0.0104) was 0.1411 ± 0.0001 S/m and the electrical conductivity (323.15 K, m1 = 0.01098) was 0.1472 ± 0.0001 S/m. For the same molecule, the electrical conductivity (323.15 K, m1 = 0.01163) was 0.1554 ± 0.0001 S/m, the electrical conductivity (323.15 K, m1 = 0.01236) was 0.1644 ± 0.0001 S/m and the electrical conductivity (323.15 K, m1 = 0.01275) was 0.169 ± 0.0001 S/m. For the same molecule, the electrical conductivity (323.15 K, m1 = 0.01318) was 0.1743 ± 0.0001 S/m, the electrical conductivity (323.15 K, m1 = 0.01363) was 0.1794 ± 0.0001 S/m and the electrical conductivity (323.15 K, m1 = 0.01412) was 0.1851 ± 0.0001 S/m. For the same molecule, the electrical conductivity (323.15 K, m1 = 0.01465) was 0.1902 ± 0.0001 S/m, the electrical conductivity (323.15 K, m1 = 0.01521) was 0.1949 ± 0.0001 S/m and the electrical conductivity (323.15 K, m1 = 0.01582) was 0.1998 ± 0.0001 S/m. The electrical conductivity (323.15 K, m1 = 0.01648) was 0.2018 ± 0.0001 S/m, the electrical conductivity (323.15 K, m1 = 0.01719) was 0.2068 ± 0.0001 S/m and the electrical conductivity (323.15 K, m1 = 0.01798) was 0.2118 ± 0.0001 S/m. The electrical conductivity (323.15 K, m1 = 0.01883) was 0.2128 ± 0.0001 S/m and the electrical conductivity (323.15 K, m1 = 0.01977) was 0.2199 ± 0.0001 S/m.
For `O` [water] + CCCCCCCCCCCCCC[N+](C)(C)CCO.[Br-], the surface tension liquid-gas (298.15 K, m2 = 0) was 72.17 ± 0.64 mN/m.
